Experimental findings from article PMC3914206 are described below.

The target of experiment [1] is T1, panel of 442 kinases (Homo sapiens, UniProt Q9UQ88).
T1 construct: purchased KINOMEscan
T1 sequence (Q9UQ88 1-783): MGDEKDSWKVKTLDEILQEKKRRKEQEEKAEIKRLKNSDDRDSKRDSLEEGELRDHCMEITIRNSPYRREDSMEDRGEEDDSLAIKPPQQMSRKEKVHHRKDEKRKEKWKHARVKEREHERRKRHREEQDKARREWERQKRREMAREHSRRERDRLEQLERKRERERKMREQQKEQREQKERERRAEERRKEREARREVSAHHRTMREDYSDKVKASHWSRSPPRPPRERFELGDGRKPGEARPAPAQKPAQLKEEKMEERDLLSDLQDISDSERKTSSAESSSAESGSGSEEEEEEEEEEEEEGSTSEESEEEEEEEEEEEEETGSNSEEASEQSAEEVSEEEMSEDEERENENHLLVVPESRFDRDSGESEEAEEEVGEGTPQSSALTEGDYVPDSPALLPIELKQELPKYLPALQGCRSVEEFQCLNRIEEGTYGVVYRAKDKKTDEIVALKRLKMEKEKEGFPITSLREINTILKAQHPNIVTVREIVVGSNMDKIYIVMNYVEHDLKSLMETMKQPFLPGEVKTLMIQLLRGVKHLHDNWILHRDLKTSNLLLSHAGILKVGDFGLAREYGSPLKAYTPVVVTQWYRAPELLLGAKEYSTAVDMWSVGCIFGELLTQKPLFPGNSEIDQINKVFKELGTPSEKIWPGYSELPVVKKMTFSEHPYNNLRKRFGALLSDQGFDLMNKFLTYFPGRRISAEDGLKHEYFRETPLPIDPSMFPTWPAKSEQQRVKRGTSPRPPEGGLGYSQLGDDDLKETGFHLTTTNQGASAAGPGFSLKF
It counts as binding. The note with it: Compound Concentration 10 µM. The source says: (§1) We assessed the selectivity of members of this scaffold using the KINOMEscan methodology across a near comprehensive panel of 442 kinases [[18,27]].

For experiment [2], the target named is T2, panel of 442 kinases (Homo sapiens, UniProt O00444).
T2 construct: purchased KINOMEscan
T2 sequence (O00444 1-970): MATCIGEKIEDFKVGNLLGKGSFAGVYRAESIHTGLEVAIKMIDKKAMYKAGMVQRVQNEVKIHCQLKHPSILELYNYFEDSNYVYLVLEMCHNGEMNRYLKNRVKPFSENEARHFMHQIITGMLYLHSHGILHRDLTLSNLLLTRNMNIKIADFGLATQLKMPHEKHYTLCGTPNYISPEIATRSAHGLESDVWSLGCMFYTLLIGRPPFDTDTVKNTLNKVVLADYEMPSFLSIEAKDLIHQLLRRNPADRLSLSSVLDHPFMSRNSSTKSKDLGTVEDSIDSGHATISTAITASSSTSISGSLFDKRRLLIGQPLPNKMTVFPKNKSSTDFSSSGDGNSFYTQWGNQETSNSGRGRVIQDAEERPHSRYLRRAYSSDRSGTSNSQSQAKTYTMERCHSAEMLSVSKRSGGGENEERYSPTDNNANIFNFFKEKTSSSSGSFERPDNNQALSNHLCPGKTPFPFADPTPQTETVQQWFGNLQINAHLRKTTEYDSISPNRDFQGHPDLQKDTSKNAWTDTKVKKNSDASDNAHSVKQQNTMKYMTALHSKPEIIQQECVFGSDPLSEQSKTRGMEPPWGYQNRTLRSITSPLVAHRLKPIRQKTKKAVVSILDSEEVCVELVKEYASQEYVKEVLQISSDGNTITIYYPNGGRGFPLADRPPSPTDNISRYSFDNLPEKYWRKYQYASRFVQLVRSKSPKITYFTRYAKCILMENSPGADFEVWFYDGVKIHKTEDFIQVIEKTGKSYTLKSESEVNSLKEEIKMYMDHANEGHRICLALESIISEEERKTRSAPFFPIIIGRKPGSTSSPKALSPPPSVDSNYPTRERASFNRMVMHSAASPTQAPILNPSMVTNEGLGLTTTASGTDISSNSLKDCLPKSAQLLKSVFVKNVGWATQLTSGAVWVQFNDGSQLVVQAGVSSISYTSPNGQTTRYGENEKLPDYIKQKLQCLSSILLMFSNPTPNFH
Type of experiment: binding. The note with it: Compound Concentration 10 µM.
Excerpt: as §1

For the molecule `COc1cc(C(=O)N2CCC(N3CCN(C)CC3)CC2)ccc1Nc1ncc2c(n1)N(C1CCCC1)c1ccccc1C(=O)N2C` [Compound 25, 11-cyclopentyl-2-((2-methoxy-4-(4-(4-methylpiperazin-1-yl)piperidine-1-carbonyl)phenyl)amino)-5-methyl-5H-benzo[e]pyrimido[5,4-b][1,4]diazepin-6(11H)-one], the “KINOMEscan: CDC2L2” value at panel of 442 kinases [1] is 100. Besides, the “KINOMEscan: PLK4” value at panel of 442 kinases [2] turned out to be 0.25.
For `COc1cc(C(=O)N2CCC(N3CCN(C)CC3)CC2)ccc1Nc1ncc2c(n1)N1CCc3cccc(c31)C(=O)N2C` [Compound 24], the “KINOMEscan: PLK4” value at panel of 442 kinases [2] was found to be 0.3.
`COc1cc(C(=O)N2CCC(N3CCN(C)CC3)CC2)ccc1Nc1ncc2c(n1)N(C)c1ccccc1C(=O)N2C` [15 (LRRK2-IN-1)]: the “KINOMEscan: CDC2L2” value at panel of 442 kinases [1] was 82. In addition, the “KINOMEscan: PLK4” value on panel of 442 kinases [2] worked out at 0.
For `CCOc1cc(C(=O)N2CCC(N3CCN(C)CC3)CC2)ccc1Nc1ncc2c(n1)N(C1CCCC1)c1ccccc1C(=O)N2C` [Compound 26] the same measures were 100 and 5.1.
